Measured values as given in PubChem BioAssay AID1259408 (Genetic Toxicology Data Bank (GENE-TOX), 2018).
Calls of active or inactive are those of the source. The rule behind the calls is not given here. Numbered stars: 1 amine (or outer) side, 2 acyl side, 3 side chain; on linkers, the order of the positions; unused ones are H or OH. Bridge positions count the residues as written; N and C are the ends. Square brackets hold non-standard residues; d marks the D form. Peptide text beside a SMILES is read from it. I, II: the chains in the order shown. Actinocin(9to1) = Cc1c2oc3c(C)ccc(C(=O)[*:1])c3nc-2c(C(=O)[*:2])c(N)c1=O; NMeV = CN[C@H](C(=O)O)C(C)C; Sar = CNCC(=O)O

Test system: GENE-TOX genotoxicity assays, various organisms and cells
Test: GENE-TOX mutagenicity studies
Details: for call: Assay Type: In vivo carcinogenicity studies
[1] = Species/Cell Type: Human, Assay Type: Sister-chromatid exchange (SCE) in vitro, Assay Code: SC1+, Evaluation Type: Evaluation B (Post-1980)
[2] = Species/Cell Type: Mammalian polychromatic erythrocytes, Assay Type: Micronucleus test, chromosome aberrations, Assay Code: MNT+, Evaluation Type: Evaluation B (Post-1980)
[3] = Species/Cell Type: Mouse, Sex: Male, Assay Type: Sperm morphology, Assay Code: SPI+, Evaluation Type: Evaluation A (Pre-1980)
[4] = Species/Cell Type: Nonhuman, Assay Code: CCG+, Evaluation Type: Evaluation A (Pre-1980)
[5] = Species/Cell Type: Salmonella typhimurium (one or more of the five standard strains: TA98, TA100, TA1535, TA1537, and TA1538), Assay Type: Histidine reverse gene mutation, Ames assay, Assay Code: SAL+, Evaluation Type: Evaluation A (Pre-1980)
[6] = Species/Cell Type: Allium cepa, Assay Type: Chromosome aberrations, Assay Code: ALC+, Evaluation Type: Evaluation A (Pre-1980)
[7] = Species/Cell Type: Chinese hamster lung (V79) cells, Assay Type: Forward gene mutation at the HPRT or ouabain locus, Assay Code: V79-, Evaluation Type: Evaluation A (Pre-1980)
[8] = Species/Cell Type: Drosophila melanogaster, Assay Type: Sex-linked recessive lethal gene mutation, Assay Code: SRLT, Evaluation Type: Evaluation A (Pre-1980)
[9] = Species/Cell Type: Nonhuman, Assay Code: CCG+L, Evaluation Type: Evaluation A (Pre-1980)
[10] = Species/Cell Type: Mammalian polychromatic erythrocytes, Assay Type: Micronucleus test, chromosome aberrations, Assay Code: MNT-, Evaluation Type: Evaluation B (Post-1980)

## O=P(OCC(Br)CBr)(OCC(Br)CBr)OCC(Br)CBr (configuration not stated)
Species/Cell Type: Chinese hamster lung (V79) cells, Assay Type: Forward gene mutation, host-mediated assay, Assay Code: HMG+, Evaluation Type: Evaluation A (Pre-1980)
  mutagenic call: active; positive
Species/Cell Type: Drosophila melanogaster, Assay Type: Sex-linked recessive lethal gene mutation, Assay Code: SRL+, Evaluation Type: Evaluation A (Pre-1980)
  mutagenic call: active; positive
Species/Cell Type: Drosophila melanogaster, Sex: Male, Assay Type: Heritable translocation test, chromosome aberrations, Assay Code: DHT+, Evaluation Type: Evaluation A (Pre-1980)
  mutagenic call: active; positive
[1]
  mutagenic call: active; positive
[2]
  mutagenic call: active; positive
[3]
  mutagenic call: active; positive
[4]
  call: active; positive
Species/Cell Type: Nonhuman, Assay Type: Sister-chromatid exchange (SCE) in vitro, Assay Code: SC2+D, Dose Response: With dose response, Evaluation Type: Evaluation A (Pre-1980)
  mutagenic call: active; positive
Species/Cell Type: Nonhuman, Assay Type: Sister-chromatid exchange (SCE) in vivo, Assay Code: SC3+D, Dose Response: With dose response, Evaluation Type: Evaluation A (Pre-1980)
  mutagenic call: active; positive
[5]
  mutagenic call: active; positive

## Oc1cccc(O)c1O
[6]
  mutagenic call: active; positive
[2]
  mutagenic call: active; positive

## Cc1c2oc3c(C)ccc(C(=O)N[C@@H]4C(=O)N[C@H](C(C)C)C(=O)N5CCC[C@H]5C(=O)N(C)CC(=O)N(C)[C@@H](C(C)C)C(=O)O[C@@H]4C)c3nc-2c(C(=O)N[C@@H]2C(=O)N[C@H](C(C)C)C(=O)N3CCC[C@H]3C(=O)N(C)CC(=O)N(C)[C@@H](C(C)C)C(=O)O[C@@H]2C)c(N)c1=O (I: T[dV]P[Sar][NMeV] / II: T[dV]P[Sar][NMeV]; ester I:1-I:C, II:1-II:C; linker I:N-II:N via Actinocin(9to1))
[6]
  mutagenic call: active; positive
[7]
  mutagenic call: inactive; negative
Species/Cell Type: Chinese hamster ovary (CHO) cells, Assay Type: Forward gene mutation at the HPRT locus, Assay Code: CHO+, Evaluation Type: Evaluation B (Post-1980)
  mutagenic call: active; positive
Species/Cell Type: Drosophila melanogaster, Assay Type: Aneuploidy, sex chromosome gain, chromosome aberrations, Assay Code: DAG+F, Evaluation Type: Evaluation A (Pre-1980)
  mutagenic call: active; positive
Species/Cell Type: Drosophila melanogaster, Assay Type: Aneuploidy, whole sex chromosome loss, chromosome aberrations, Assay Code: DAC+F, Evaluation Type: Evaluation A (Pre-1980)
  mutagenic call: active; positive
[8]
  mutagenic call: no conclusion
Species/Cell Type: Escherichia coli polA (W3119 vs P3478), Assay Type: Rec-assay, DNA effects (bacterial DNA repair), Assay Code: RE1T, Evaluation Type: Evaluation A (Pre-1980)
  mutagenic call: no conclusion
Species/Cell Type: Glycine max (soybean), Assay Type: Gene mutation, Assay Code: GLM+, Evaluation Type: Evaluation A (Pre-1980)
  mutagenic call: active; positive
Species/Cell Type: Human cell culture, Assay Type: Chromosome aberrations in vitro, Assay Code: CYZ+D, Dose Response: With dose response, Evaluation Type: Evaluation A (Pre-1980)
  mutagenic call: active; positive
Species/Cell Type: Human lymphocytes, Assay Type: Sister-chromatid exchange (SCE) in vivo, Assay Code: SCY+, Evaluation Type: Evaluation B (Post-1980)
  mutagenic call: active; positive
Species/Cell Type: Mammalian polychromatic erythrocytes, Assay Type: Micronucleus test, chromosome aberrations, Assay Code: MNTT, Evaluation Type: Evaluation A (Pre-1980)
  mutagenic call: no conclusion
Species/Cell Type: Mouse (C3H/10T1/2) cells, Assay Type: Cell transformation, Assay Code: CTH+, Evaluation Type: Evaluation A (Pre-1980)
  mutagenic call: active; positive
[3]
  mutagenic call: active; positive
Species/Cell Type: Neurospora crassa, Assay Type: Forward gene mutation, Assay Code: NEF+, Evaluation Type: Evaluation A (Pre-1980)
  mutagenic call: active; positive
Species/Cell Type: Nonhuman, Assay Type: Chromosome aberrations in vitro, Assay Code: CY&+, Evaluation Type: Evaluation A (Pre-1980)
  mutagenic call: active; positive
[9]
  call: active; positive
Species/Cell Type: Nonhuman, Assay Type: Sister-chromatid exchange (SCE) in vitro, Assay Code: SC2+, Evaluation Type: Evaluation A (Pre-1980)
  mutagenic call: active; positive
Species/Cell Type: Nonhuman, Assay Type: Sister-chromatid exchange (SCE) in vivo, Assay Code: SC3+, Evaluation Type: Evaluation B (Post-1980)
  mutagenic call: active; positive
Species/Cell Type: Saccharomyces cerevisiae, Assay Type: Forward gene mutation, Assay Code: YEFT, Evaluation Type: Evaluation A (Pre-1980)
  mutagenic call: no conclusion

## Oc1cc2cc3ccccc3c3ccc4cccc1c4c23
[7]
  mutagenic call: inactive; negative
Species/Cell Type: Nonhuman, Assay Code: CCGT, Evaluation Type: Evaluation A (Pre-1980)
  call: no conclusion
Species/Cell Type: Nonhuman, Assay Type: Sister-chromatid exchange (SCE) in vitro, Assay Code: SC2+, Evaluation Type: Evaluation B (Post-1980)
  mutagenic call: active; positive
Species/Cell Type: Salmonella typhimurium (one or more of the five standard strains: TA98, TA100, TA1535, TA1537, and TA1538), Assay Type: Histidine reverse gene mutation, Ames assay, Assay Code: SALT, Evaluation Type: Evaluation A (Pre-1980)
  mutagenic call: no conclusion

## C[C@@H]1C[C@@]2(O[C@H]2C)C(=O)O[C@@H]2CCN3CC=C(COC(=O)[C@]1(C)O)[C@H]23
[6]
  mutagenic call: active; positive
[8]
  mutagenic call: no conclusion

## ClCc1ccccc1
Species/Cell Type: Bacillus subtilis (H17 vs M45), Assay Type: Rec-assay, spot test, DNA effects (bacterial DNA repair), Assay Code: REW+, Evaluation Type: Evaluation A (Pre-1980)
  mutagenic call: active; positive
Species/Cell Type: Chinese hamster ovary (CHO) cells, Assay Type: Forward gene mutation at the HPRT locus, Assay Code: CHOT, Evaluation Type: Evaluation B (Post-1980)
  mutagenic call: no conclusion
Species/Cell Type: Escherichia coli polA (W3110 vs P3478), Assay Type: Rec-assay, DNA effects (bacterial DNA repair), Assay Code: RE2+, Evaluation Type: Evaluation A (Pre-1980)
  mutagenic call: active; positive
Species/Cell Type: Escherichia coli polA (W3119 vs P3478), Assay Type: Rec-assay, DNA effects (bacterial DNA repair), Assay Code: RE1+, Evaluation Type: Evaluation A (Pre-1980)
  mutagenic call: active; positive
Species/Cell Type: Human diploid fibroblasts, Assay Type: Unscheduled DNA synthesis (UDS) in vitro, DNA effects, Assay Code: UDH+, Evaluation Type: Evaluation A (Pre-1980)
  mutagenic call: active; positive
Species/Cell Type: Human lymphocytes, Assay Type: Sister-chromatid exchange (SCE) in vitro, Assay Code: SCL+, Evaluation Type: Evaluation B (Post-1980)
  mutagenic call: active; positive
[1]
  mutagenic call: active; positive
[10]
  mutagenic call: inactive; negative
[9]
  call: active; positive
Species/Cell Type: Saccharomyces cerevisiae, Assay Type: Mitotic recombination or gene conversion, Assay Code: YEH+, Evaluation Type: Evaluation A (Pre-1980)
  mutagenic call: active; positive
[5]
  mutagenic call: active; positive
Species/Cell Type: Salmonella typhimurium, Assay Type: Forward and reverse gene mutation, host-mediated assay, Assay Code: HMA-, Evaluation Type: Evaluation A (Pre-1980)
  mutagenic call: inactive; negative
Species/Cell Type: Syrian hamster embryo (SHE) cells, Assay Type: Cell transformation, clonal assay, Assay Code: CTC+, Evaluation Type: Evaluation A (Pre-1980)
  mutagenic call: active; positive

## CC(C)Oc1cc(-n2nc(C(C)(C)C)oc2=O)c(Cl)cc1Cl
Species/Cell Type: Saccharomyces cerevisiae, Assay Type: Mitotic recombination or gene conversion, Assay Code: YEC-, Evaluation Type: Evaluation A (Pre-1980)
  mutagenic call: inactive; negative

## CC(=O)Nc1nc(NC(C)=O)nc(-c2ccc([N+](=O)[O-])o2)n1
[5]
  mutagenic call: active; positive

## C=CC#N
[8]
  mutagenic call: no conclusion
Species/Cell Type: Escherichia coli WP2, Assay Type: Tryptophan reverse gene mutation, Assay Code: WP2+D, Dose Response: With dose response, Evaluation Type: Evaluation A (Pre-1980)
  mutagenic call: active; positive
Species/Cell Type: Escherichia coli WP2 UVRA, Assay Type: Tryptophan reverse gene mutation, Assay Code: WPU+, Evaluation Type: Evaluation A (Pre-1980)
  mutagenic call: active; positive
[10]
  mutagenic call: inactive; negative
[4]
  call: active; positive
Species/Cell Type: Nonhuman, Assay Type: Sister-chromatid exchange (SCE) in vitro, Assay Code: SC2+D, Dose Response: With dose response, Evaluation Type: Evaluation B (Post-1980)
  mutagenic call: active; positive
Species/Cell Type: Nonhuman, Assay Type: Sister-chromatid exchange (SCE) in vivo, Assay Code: SC3+D, Dose Response: With dose response, Evaluation Type: Evaluation B (Post-1980)
  mutagenic call: active; positive
Species/Cell Type: Salmonella typhimurium (one or more of the five standard strains: TA98, TA100, TA1535, TA1537, and TA1538), Assay Type: Histidine reverse gene mutation, Ames assay, Assay Code: SAL+*, Activation: With metabolic activation, Evaluation Type: Evaluation A (Pre-1980)
  mutagenic call: active; positive
Species/Cell Type: Syrian hamster embryo (SA7/SHE) cells, Assay Type: Cell transformation, viral enhanced, Assay Code: CT7+, Evaluation Type: Evaluation A (Pre-1980)
  mutagenic call: active; positive
Species/Cell Type: Syrian hamster embryo (SHE) cells, Assay Type: Cell transformation, focus assay, Assay Code: CTF+, Evaluation Type: Evaluation A (Pre-1980)
  mutagenic call: active; positive
